Results taken from BigSolDB 2.1.

CC(C)c1ncc[nH]1
solubility (mole fraction)
Settings	in 2-butanone	in acetone	in acetonitrile	in ethanol	in ethyl acetate	in isopropanol	in methanol	in n-propanol	in toluene
278.15 K	0.11	0.0906	0.0259	0.189	0.0519	0.0738	0.224	0.0999	0.0215
280.65 K	0.116	0.0946	0.0275	0.196	0.0556	0.0768	0.233	0.104	0.0225
283.15 K	0.121	0.0988	0.0291	0.203	0.0588	0.0801	0.242	0.109	0.0237
285.65 K	0.127	0.103	0.0308	0.21	0.0626	0.0825	0.252	0.114	0.0248
288.15 K	0.133	0.108	0.0325	0.216	0.066	0.0856	0.263	0.117	0.026
290.65 K	0.139	0.111	0.0343	0.226	0.0697	0.0883	0.274	0.121	0.0272
293.15 K	0.145	0.116	0.0361	0.235	0.0737	0.0927	0.285	0.126	0.0287
295.65 K	0.152	0.121	0.0379	0.243	0.0778	0.0965	0.297	0.133	0.0302
298.15 K	0.159	0.127	0.0401	0.253	0.0826	0.101	0.31	0.139	0.0318
300.65 K	0.167	0.133	0.0427	0.263	0.0883	0.105	0.322	0.146	0.0336
303.15 K	0.177	0.14	0.0453	0.273	0.0939	0.11	0.334	0.153	0.0355
305.65 K	0.185	0.146	0.0481	0.282	0.0994	0.115	0.348	0.159	0.0374
308.15 K	0.194	0.153	0.0509	0.294	0.105	0.121	0.361	0.166	0.0394
310.65 K	0.203	0.159	0.0538	0.304	0.112	0.126	0.376	0.173	0.0416
313.15 K	0.213	0.166	0.0568	0.315	0.118	0.132	0.39	0.18	0.0437
